Data set [1] has as its system Candida rugosa (ATCC 10571). Put plainly: Broth microdilution antifungal assay. The class given is cell-based. The settings on record: YM broth, 25 °C, read-out: MICs C. rugosa. The method, then:
Antifungal activity against C. rugosa (ATCC 10571) was measured as previously described using a broth microdilution method[36]–[38] with minor modifications. The assay was performed in sterile 96-well microtiter plates. Briefly, YM broth was prepared and autoclaved for 20 min at 121 °C, then allowed to cool to room temperature (25 °C). C. rugosa was dispersed in YM broth to an optical density of 1 UA at 600 nm (approximately 1 × 10^7 cfu/mL) using uninoculated broth as the blank. A 198 µL aliquot of the resulting fungal suspension was dispensed into each well of a 96-well plate. Stock solutions of the twelve compounds were prepared in DMSO at a concentration of 50 mM. The stock solutions were diluted to a range of final concentrations (500–0.14 µM) in YM broth such that the final DMSO concentration was no higher than 1%, v/v. A 2 µL aliquot of the resulting test samples was transferred to each well of the plate. Plates were incubated at 25 °C for 24 h prior to measurement of the optical density of each well at 600 nm. […] Amphotericin B was used as positive control.
Background: Dilution methods test growth across graded concentrations, often in twofold steps.

Data set [2] concerns the target T1, OAT3 (Homo sapiens, UniProt Q8TCC7).
T1 sequence (Q8TCC7 1-542): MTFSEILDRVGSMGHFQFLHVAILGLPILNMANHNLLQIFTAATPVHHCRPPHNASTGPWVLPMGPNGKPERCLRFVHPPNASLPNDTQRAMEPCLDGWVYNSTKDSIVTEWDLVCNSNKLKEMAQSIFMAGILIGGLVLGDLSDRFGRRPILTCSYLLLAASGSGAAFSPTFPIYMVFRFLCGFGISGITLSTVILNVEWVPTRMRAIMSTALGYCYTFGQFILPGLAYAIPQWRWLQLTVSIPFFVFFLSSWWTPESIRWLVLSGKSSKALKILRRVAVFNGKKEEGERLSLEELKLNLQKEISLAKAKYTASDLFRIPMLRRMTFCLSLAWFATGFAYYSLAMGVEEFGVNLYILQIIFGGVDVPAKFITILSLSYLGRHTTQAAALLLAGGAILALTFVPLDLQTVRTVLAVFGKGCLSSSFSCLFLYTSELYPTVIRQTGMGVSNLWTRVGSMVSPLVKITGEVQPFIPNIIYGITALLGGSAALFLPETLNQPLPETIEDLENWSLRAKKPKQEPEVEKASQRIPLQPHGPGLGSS
Briefly: 6-CF uptake assay in HEK-OAT3 cells.
Procedure: (§1) The interactions of 12 flavones with the uptake of 6-CF in HEK-OAT1 and HEK-OAT3 cells were evaluated. This cell uptake assay was performed as previously described[14],[35]. A density of 5 × 10^4 cells were seeded per well in 96-well culture plates precoated with poly-D-lysine. […] Uptake was terminated by adding 100 µL ice-cold uptake buffer, and quickly washing the cells in each well three times with ice-cold phosphate-buffered saline (PBS). The cells were lysed with 100 µL of 20 mM Tris-HCl containing 0.2% TritonX-100. […] The protein content of the cell lysate was quantified using a BCA Protein Assay Kit. The intensity of fluorescence was standardized against total protein content, and measured in triplicate. The stock solutions of tested compounds were dissolved in DMSO with a final concentration of 50 mM and dilutions were made using uptake buffer.
(§2) For the uptake experiments, data were analyzed with a two-tailed unpaired Student’s t-test.

Data set [3] has as its target T2, OAT1 (Homo sapiens, UniProt Q4U2R8).
T2 sequence (Q4U2R8 1-563): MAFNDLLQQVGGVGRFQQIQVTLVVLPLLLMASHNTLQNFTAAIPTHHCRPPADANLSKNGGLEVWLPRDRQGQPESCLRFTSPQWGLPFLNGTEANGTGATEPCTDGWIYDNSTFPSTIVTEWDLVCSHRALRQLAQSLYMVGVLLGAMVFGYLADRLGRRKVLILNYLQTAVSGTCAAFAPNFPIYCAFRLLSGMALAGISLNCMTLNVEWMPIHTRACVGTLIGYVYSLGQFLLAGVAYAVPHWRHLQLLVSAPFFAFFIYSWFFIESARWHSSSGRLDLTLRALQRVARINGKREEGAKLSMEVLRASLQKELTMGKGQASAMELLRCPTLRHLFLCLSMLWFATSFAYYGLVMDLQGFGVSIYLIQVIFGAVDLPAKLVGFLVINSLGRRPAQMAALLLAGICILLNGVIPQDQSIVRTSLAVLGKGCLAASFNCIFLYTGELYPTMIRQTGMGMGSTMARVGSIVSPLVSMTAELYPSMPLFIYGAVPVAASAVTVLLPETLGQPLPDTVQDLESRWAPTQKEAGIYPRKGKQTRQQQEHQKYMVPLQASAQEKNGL
Put plainly: 6-CF uptake assay in HEK-OAT1 cells. The settings on record: for inhibition at 5 min, 50 µM: human, HEK293 cells stably overexpressing OAT1 (HEK-OAT1), pH 7.2, probe 6-CF (4 µM).
Procedure: as §1, §2

For data set [4], the system named is OAT3. The arrangement: method as in PMID 30248705. Conditions: previous study; cited from earlier work.
In data set [5] the test system is OAT3. The settings on record: read-out: IC50 OAT3; biflavonoids from Juniperus oblonga; cited from earlier work.
In data set [6] the test system is OAT3. Conditions: cited from earlier work.
Data set [7] has as its system Candida rugosa. Briefly: Agar well diffusion antimicrobial assay. Conditions: Diutina rugosa, fraction at 1 mg/mL in DMSO, read-out: diameter zone of inhibition. Type of data set: cell-based. For orientation: Agar diffusion results depend on both activity and mobility in agar.
Procedure: Approximately 15 mL aliquots of each medium were dispensed into petri plates and allowed to solidify, then incubated for 24 h to ensure sterility prior to use. Microbial suspensions (0.5 mL) at a density of 5 × 10^6 cfu/mL were inoculated onto the sterile media and allowed to stand for 10–20 min before wells were cut into the agar using a sterile pipet tip. A 10 µL aliquot of a DMSO solution of plant extracts (1 mg/mL) or fractions (2, 0.2, 0.02 mg/mL) were pipetted into each well. Similarly, 10 µL portions of DMSO and a solution of an appropriate antibiotic standard were applied to each plate as negative and positive controls, respectively. All treated plates were incubated for 24 h in incubators at appropriate temperatures. Zones of inhibition were measured in millimeters. The assays were performed in triplicate.
Data set [8] has as its system OAT1. Set-up: method as in PMID 30248705. Conditions: previous study; cited from earlier work.
Data set [9] relates to OAT1. The settings on record: cited from earlier work.
Data set [10] concerns OAT1. The settings on record: cited from earlier work. This is another data set of the same source.
The test system of data set [11] is OAT1. The settings on record: read-out: IC50 OAT1; assay similar to that used in this study; cited from earlier work.
In data set [12] the test system is Oat3. Conditions: rat, in vivo, po; cited from earlier work.
[13] abbreviates: Diutina rugosa, ATCC10571, 24 h.

Values after ≈ are worked out from the molar mass of the structure shown. Read-outs that look alike come from different tables or passages of the source.

In the case of `COc1ccc(OC)c(-c2cc(=O)c3c(OC)c(OC)ccc3o2)c1OC` [Compound 8, 5,6,2′,3′,6′-pentamethoxyflavone], the MIC was below 2 µM in data set [1] (setting [13]) and 1.2 µM (≈ 0.447 µg/mL) in data set [1] (24 h). Also, the IC50 (in general, the concentration at which inhibition is half-maximal) in [2] worked out at 7.4 µM; in data set [3] it was 10 µM.

With `O=c1cc(-c2ccccc2O)oc2ccccc12` [Compound 10, 2′-hydroxyflavone], the MIC in [1] (setting [13]) is above 500 µM. In [2], this compound displayed a half-maximal inhibitory concentration (IC50) of 18.8 µM. Besides, in [3], the inhibition – broadly, how much of the control response was suppressed – at 5 min, 50 µM is below 70%.

Take `COc1cccc(OC)c1-c1cc(=O)c2c(OC)c(OC)cc(OC)c2o1` [Compound 11, 5,6,8,2′,6′-pentamethoxyflavone]: the MIC in data set [1] (setting [13]) was above 500 µM. In data set [2], this compound came in with an IC50 of 10.9 µM. The compound also registered an inhibition at 5 min, 50 µM in data set [3] below 70%.

For `COc1cc(-c2cc(=O)c3ccccc3o2)cc(O)c1OC` [Compound 6, 3′-hydroxy-4′,5′-dimethoxyflavone], in [1] (setting [13]), the MIC was above 500 µM. For the same compound, the IC50 in [2] was 5.1 µM; in data set [3], 3.2 µM.

As for `COc1ccccc1-c1cc(=O)c2c(OC)c(OC)ccc2o1` [Compound 12, 5,6,2′-trimethoxyflavone], the MIC in data set [1] (setting [13]) is below 2 µM; in data set [1] (24 h), 2.0 µM (≈ 0.625 µg/mL). In addition, the IC50 in data set [2] came to 2.9 µM; in [3] it was 9.6 µM.

Take `COc1cccc(-c2cc(=O)c3ccccc3o2)c1` [Compound 1, 3′-methoxyflavone]: in [1] (setting [13]), the MIC was above 500 µM. The inhibition at 5 min, 50 µM is below 70% in [2] (human, HEK293 cells stably overexpressing OAT3 (HEK-OAT3), pH 7.2, probe 6-CF (4 µM)) and below 70% in [3].

Consider `COc1c(O)cc2c(=O)c(-c3ccccc3O)coc2c1OC` [6,2′-dihydroxy-7,8-dimethoxyisoflavone], for which the IC50 in data set [4] is 17.9 µM.

Take `O=c1cc(-c2ccc(O)cc2)oc2c(-c3c(O)cc(O)c4c(=O)cc(-c5ccc(O)cc5)oc34)c(O)cc(O)c12` [cupressuflavone]: in data set [5], the IC50 is above 50 µM.

Regarding `COc1ccc(O)cc1-c1cc(=O)c2ccccc2o1` [Compound 5, 2′-methoxy-5′-hydroxyflavone], the MIC in [1] (setting [13]) is above 500 µM. For the same compound, the IC50 worked out at 27.3 µM in data set [2] and 26.9 µM in data set [3].

With `O=c1cc(-c2ccccc2)oc2cc(O)c(O)c(O)c12` [baicalein], in data set [6], the IC50 was 2.4 µM.

Consider `O=c1cc(-c2ccccc2)oc2ccccc12` [Compound 2, flavone], for which the MIC in data set [1] (setting [13]) was 500 µM (≈ 111 µg/mL). Further, the IC50 in data set [2] is 4.6 µM; in [3] it was 9.4 µM.

For `C[C@@H]1[C@H](O)[C@@H](C)/C=C/C=C/C=C/C=C/C=C/C=C/C=C/[C@H](O[C@@H]2O[C@H](C)[C@@H](O)[C@H](N)[C@@H]2O)C[C@@H]2O[C@](O)(C[C@@H](O)C[C@@H](O)[C@H](O)CC[C@@H](O)C[C@@H](O)CC(=O)O[C@H]1C)C[C@H](O)[C@H]2C(=O)O` [Amphotericin B, reference compound], the zone of inhibition (usually the size of the clear area around the sample on an inoculated plate) at 1000 µg/mL in data set [7] was 11 mm. The MIC in [1] (setting [13]) is 0.4 µM (≈ 0.37 µg/mL).

For `O=c1cc(-c2cccc(O)c2)oc2ccccc12` [Compound 9, 3′-hydroxyflavone], the MIC in data set [1] (setting [13]) is above 500 µM. For the same compound, the half-inhibitory concentration (IC50) in data set [2] is 8 µM; in [3] it was 11.4 µM.

Consider `COc1cc2c(=O)c(-c3ccccc3O)coc2c(OC)c1OC` [2′-hydroxy-6,7,8-trimethoxyisoflavone], for which the concentration for half-maximal inhibition (IC50) was 8.7 µM in [4] and 9.1 µM in [8].

As for `O=c1c(O)c(-c2ccc(O)cc2O)oc2cc(O)cc(O)c12` [Morin], the IC50 in [9] (read-out: IC50 OAT1, PAH uptake assay in LLC-PK1 cells) was below 0.3 µM.

Take `COc1ccc2c(=O)cc(-c3ccccc3)oc2c1` [7-methoxyflavone]: the values for the IC50 in data set [4] and in data set [8] were 5.8 µM and 3.6 µM, respectively.

Take `O=c1cc(-c2ccc(O)cc2)oc2cc(O)cc(O)c12` [Apigenin]: in [10], the IC50 is 0.737 µM.

As for `COc1ccc(OC)c(-c2cc(=O)c3ccccc3o2)c1` [Compound 4, 2′,5′-dimethoxyflavone], the MIC in [1] (setting [13]) is above 500 µM. Moreover, the IC50 came out at 12.1 µM in data set [2] and 32.9 µM in data set [3].

On to `COc1ccccc1-c1cc(=O)c2ccccc2o1` [Compound 3, 2′-methoxyflavone], for which the MIC in data set [1] (setting [13]) was above 500 µM. Besides, the 50% inhibitory concentration (IC50) was found to be 6.3 µM in data set [2] and 2.9 µM in data set [3].

For the compound `O=c1cc(-c2ccc(O)c(O)c2)oc2cc(O)cc(O)c12` [luteolin], in data set [9], the IC50 was 0.47 µM.

With `COc1ccc(-c2cc(=O)c3c(O)cc(O)c(-c4cc(-c5cc(=O)c6c(O)cc(O)cc6o5)ccc4O)c3o2)cc1` [podocarpusflavone A], in data set [5], the IC50 was 3.8 µM.

With `COc1cc2c(=O)c(-c3ccccc3O)coc2c(OC)c1O` [7,2′-dihydroxy-6,8-dimethoxyisoflavone], the IC50 in data set [4] is 5.6 µM.

As to `COc1c(O)cc(O)c2c(=O)cc(-c3ccccc3)oc12` [Wogonin], the half-inhibitory concentration (IC50) is 1.3 µM in data set [6] (read-out: IC50 OAT3, assay similar to that used in this study) and 5.4 µM in data set [11].

Regarding `O=c1cc(-c2ccc(O)c(-c3c(O)cc(O)c4c(=O)cc(-c5ccc(O)cc5)oc34)c2)oc2cc(O)cc(O)c12` [amentoflavone], the IC50 in data set [5] was 2 µM. Moreover, the “effect on pharmacokinetic parameters of furosemide (substrate of Oat3)” value in data set [12] is “markedly altered”.

(Values after publication PMC6592895, “Unusual Flavones from Primula macrocalyx as Inhibitors of OAT1 and OAT3 and as Antifungal Agents against Candida rugosa” (Scientific Reports, 2019).)
